From patent publication US12544373B2, “Treatment of cancer, inflammatory diseases and autoimmune diseases” (Usher III Initiative, Inc., priority 2020, dated 2026)
“And” between values parts separate entries of the source, which are not always exact repeats. Identical values can stand only once. Like-named read-outs stand apart in the source and are kept apart here.

Experiments:
[1] = tested on: 20 human cancer-cell lines representing nine cancer types; assay: CellTiter-Blue Cell Viability Assay (Example 2), whole panel; assay type: cell-based
Source text: (§1) The CellTiter-Blue® Cell Viability Assay was used to assess the viability of cells from various cancer cell lines, in the presence or absence of Compound 85 (at different concentrations). This assay provides a homogeneous, fluorometric method for estimating the number of viable cells present in multi-well plates. Viable cells retain the ability to reduce resazurin to resorufin, which is highly fluorescent. […] The fluorescence produced is proportional to the number of viable cells. There is a linear relationship between cell number and fluorescence.
(§2) Cancer cells (see Table 6) were harvested from exponential phase cultures, counted and plated in 96 well flat-bottom microtiter plates, at a cell density 6,000-20,000 cells/well, depending on the cell line's growth rate. The culture medium was supplemented with 10% (v/v) foetal calf serum and 50 μg/mL gentamicin (140 μL/well). Cultures were incubated at 37° C. and 5% CO2 in a humidified atmosphere.
(§3) Compound 85 was serially diluted in DMSO, and five Compound 85 concentrations in half-log increments were used: 0.03 μM, 0.09 μM, 0.30 μM, 1.0 μM, and 3.0 μM. After 24 h, 10 μL of Compound 85 (dissolved in DMSO) or control (DMSO) medium were added, in duplicates, and left on the cells for another 72 h. Compound 85 solutions were added to the assay plates using a Tecan Freedom EVO 200 robotic platform. The DMSO concentration was kept constant at 0.3% v/v across the assay plate.
(§4) After incubation of up to 72 hours, fluorescence (FU) was measured using the EnSpire® multimode plate reader (Perkin Elmer) (excitation λ=570 nm, emission λ=600 nm).
(§5) Cancer cell lines used: Compound 85's anti-cancer effect was tested in 20 human cancer-cell lines representing nine cancer types (Table 6).
(§6) The percentage of viable cells in the presence of Compound 85 (Test condition, T), at different concentrations, are presented in Table 7 and expressed as a percentage of the number of viable cells in the presence of DMSO without Compound 85 (Control condition, C).
(§7) The relative IC50 is determined as the Compound 85 concentration giving a response halfway between the maximum cell viability signal (i.e., a 100% cell viability, no Compound 85 response) and the minimal viability signal (i.e. maximum cell viability inhibition achieved by Compound 85), in a sigmoidal concentration-effect curve.
(§8) The absolute IC50 is determined as the concentration that is associated with a T/C ratio of 50%.

PRXF PC-3 = assay: CellTiter-Blue 2D monolayer assay (Example 1), prostate; assay type: cell-based, human; conditions: for Test/Control (%): 72 h
Description: Compound 85 was assessed in 10 human tumor cell lines (see Table 3) for anti-cancer activity in vitro using a CellTiter-Blue® based 2D monolayer assay.
CellTiter-Blue® Cell Viability Assay: Tumor cells were grown at 37° C. in a humidified atmosphere with 5% CO2 in RPMI medium, supplemented with 10% (v/v) fetal calf serum and 50 μg/ml gentamicin (140 μl/well). Cultures were incubated at 37° C. and 5% CO2 in a humidified atmosphere. After 24 hours, 10 μl of Compound 85 was added, and left on the cells for another 72 hours (incubation period). Compound 85 was tested at 5 concentrations (0.003 μM, 0.03 μM, 0.3 μM, 3 μM, and 30 μM) and serially diluted in DMSO, mixed with cell culture medium, and added to the assay plates by using a Tecan Freedom EVO 200 robotic platform. The DMSO concentration was kept constant at 0.3% yip across the assay plate. Every 96 well plate included six DMSO-treated control wells and Compound 85-treated wells in duplicate at 5 concentrations. Viability of cells was quantified using the CellTiter-Blue® cell viability assay (Promega G8081). After incubation of cells, the CellTiter-Blue® reagent was brought to ambient temperature. Next, 20 μl of CellTiter-Blue® reagent were added to each well. After incubation tier up to 4 hours, fluorescence (FU) was measured using the EnSpire® multimode plate reader (Perkin Elmer) ([…]).
Data Evaluation: Sigmoidal concentration-response curves were fitted to the data points (test-versus-control; T/C values) obtained for each tumor model using 4 parameter non-linear curve fit (Charles River DRS Datawarehouse Software). Drug effects are expressed in terms of the percentage of the fluorescence signal, obtained by comparison of the mean signal in the treated wells with the mean signal of the untreated controls (T/C-value [%]) (Table 4). IC50 and IC70 values were reported as relative and absolute IC50 and IC70 values (Table 5). The absolute IC50 and IC70 values reflect the concentration of Compound 85 that achieves T/C=50% and T/C=30%, respectively. The relative IC50 value is the concentration of Compound 85 that gives a response half way between the top and bottom plateau of the sigmoidal concentration-response curve (inflection point of the curve).

MAXFTN MDA-MB-453 = assay: CellTiter-Blue Cell Viability Assay (Example 2), breast; assay type: cell-based, human; conditions: for T/C %: 72 h
Source text: as §1, §2, §3, §4, §5, §6, §7, §8

MAXFHER JIMT-1 = assay: as above; assay type: cell-based, human; conditions: for T/C %: 72 h
Source text: as §1, §2, §3, §4, §5, §6, §7, §8

MAXFHER BT-474 = assay: as above; assay type: cell-based, human; conditions: for T/C %: 72 h
Source text: as §1, §2, §3, §4, §5, §6, §7, §8

MAXFTN 401 = assay: as above; assay type: cell-based, human; conditions: for T/C %: 72 h
Source text: as §1, §2, §3, §4, §5, §6, §7, §8

[2] = geometric mean over human cancer cell lines of Table 8

SMILES: CC(C)(O)Cn1nc(-c2ccccc2)c2c(Cl)c(-c3ccccc3)nnc21 [Compound 85]
- anti-cancer activity, concentration dependence ([1]; all of the 20 human cancer cell lines tested): concentration dependent anti-cancer activity
- anti-cancer activity ([1]; at concentration of 0.95 μM, 20 human cancer-cell lines, nine cancer types): significant anti-cancer activity
- geometric mean absolute IC70 [1, 2]: 712 nM
- geometric mean relative IC70 [1, 2]: 675 nM
- IC50 ([1]; geometric mean over human cancer cell lines of Table 8, read-out: geometric mean absolute IC50): 596 nM and 600 nM
- IC50 ([1]; geometric mean over human cancer cell lines of Table 8, read-out: geometric mean relative IC50): 583 nM
- Rel. IC70 (PRXF PC-3): 1326 nM
- Test/Control (%) (PRXF PC-3; 0.003 μM): 104%
- Test/Control (%) (PRXF PC-3; 0.03 μM): 103%
- Test/Control (%) (PRXF PC-3; 0.3 μM): 103%
- Test/Control (%) (PRXF PC-3; 3 μM): 2%
- Test/Control (%) (PRXF PC-3; 30 μM): 1%
- Abs. IC70 (PRXF PC-3; T/C=30%): 1349 nM
- IC50 (PRXF PC-3; T/C=50%, read-out: Abs. IC50): 1100 nM
- Bot. (%) (PRXF PC-3; bottom plateau of curve): 1%
- IC50 (PRXF PC-3; read-out: Rel. IC50): 1080 nM
- Top (%) (PRXF PC-3; top plateau of curve): 103%
- Absolute IC70 (MAXFTN MDA-MB-453): 765 nM
- Relative IC70 (MAXFTN MDA-MB-453): 763 nM
- T/C % (MAXFTN MDA-MB-453; 0.03 μM): 101%
- T/C % (MAXFTN MDA-MB-453; 0.095 μM): 97%
- T/C % (MAXFTN MDA-MB-453; 0.3 μM): 101%
- T/C % (MAXFTN MDA-MB-453; 0.95 μM): 3%
- T/C % (MAXFTN MDA-MB-453; 3.0 μM): 1%
- IC50 (MAXFTN MDA-MB-453; read-out: Absolute IC50): 719 nM
- IC50 (MAXFTN MDA-MB-453; read-out: Relative IC50): 717 nM
- Absolute IC70 (MAXFHER JIMT-1): 957 nM
- Relative IC70 (MAXFHER JIMT-1): 844 nM
- T/C % (MAXFHER JIMT-1; 0.03 μM): 97%
- T/C % (MAXFHER JIMT-1; 0.095 μM): 97%
- T/C % (MAXFHER JIMT-1; 0.3 μM): 96%
- T/C % (MAXFHER JIMT-1; 0.95 μM): 30%
- T/C % (MAXFHER JIMT-1; 3.0 μM): 14%
- IC50 (MAXFHER JIMT-1; read-out: Absolute IC50): 742 nM
- IC50 (MAXFHER JIMT-1; read-out: Relative IC50): 702 nM
- Absolute IC70 (MAXFHER BT-474): 1316 nM
- Relative IC70 (MAXFHER BT-474): 1010 nM
- T/C % (MAXFHER BT-474; 0.3 μM): 99%
- T/C % (MAXFHER BT-474; 0.95 μM): 46%
- T/C % (MAXFHER BT-474; 3.0 μM): 17%
- IC50 (MAXFHER BT-474; read-out: Absolute IC50): 886 nM
- IC50 (MAXFHER BT-474; read-out: Relative IC50): 766 nM
- Absolute IC70 (MAXFTN 401): 503 nM
- Relative IC70 (MAXFTN 401): 500 nM
- T/C % (MAXFTN 401; 0.03 μM): 99%
- T/C % (MAXFTN 401; 0.095 μM): 99%
- T/C % (MAXFTN 401; 0.3 μM): 87%
- T/C % (MAXFTN 401; 0.95 μM): 3%
- T/C % (MAXFTN 401; 3.0 μM): 1%
- IC50 (MAXFTN 401; read-out: Absolute IC50): 429 nM
- IC50 (MAXFTN 401; read-out: Relative IC50): 429 nM
